Assays:
Type in all cases: in vivo
[1] = tested on: Homozygous LDLR-KO mice; experiment: Therapeutic effects in a mouse model of NASH (LDLR-KO mice, mCDAA diet, after fibrosis formation); conditions: 6 weeks mCDAA diet then 4 and 8 mg/kg p.o. QD for 10 weeks (therapeutic)
Method: To evaluate therapeutic potential of Compound A, effects of Compound A were additionally examined after hepatic fibrosis formation. Homozygous LDLR-KO mice were fed with chow or mCDAA diet (A08111307, Research Diets, USA). After 6 week under chow or mCDAA diet, the mice were orally dosed with Compound A (4, and 8 mg/5 mL/kg, QD, n=12; suspension in 0.5 w/v % methylcellulose solution) for 10 weeks.

[2] = tested on: male C57BL/6J mice (high caloric diet); experiment: Liver lipidosis / liver weight, 8 weeks treatment in diet induced obese (DIO) mice; conditions: for Liver weight (Day 56) / Grade Liver Lipidosis (mean): high caloric diet; for Liver weight (Day 56): vehicle HD 1.04, SD 0.96; for Grade Liver Lipidosis (mean): day 56, grades 1 minimal to 4 marked, vehicle HD 1.5
Excerpt: Obesity was induced in male C57BL/6J mice (Charles River, Germany; 6 weeks of age weighing 19-20 g at start of study) by feeding a high caloric diet (60% kcal % fat; No. 2127; Provimi-Kliba, Switzerland)) for 7 weeks. Animals were single housed in Makrolon cages type II-Long with free access to food and tap water. When body weight gain exceeded 50% compared to body weight at onset of diet, the animals were randomized according to body weight (day −4) followed by treatment for 8 weeks with daily doses of Compound A (0.3, 1, 3 and 10 mg/kg/day, p.o; dissolved in 4% (w/v) aqueous methocel solution to give the required dose in a volume of 10 mL/kg body weight; n=10 in each group). After 8 weeks of treatment, animals were sacrificed. Liver was removed, weighed and fixed in 4% neutral buffered formalin for 2 days, embedded in paraffine and stained with Hematoxylin-Eosin for histological evaluation. The slides were blinded for histological reading and liver lipidosis was evaluated by light microscopy.
The degree of liver lipidosis was assessed semi-quantitatively by the following grading criteria:
Grade 1 (minimal): small round cytoplasmic vacuoles within hepatocytes
Grade 2 (mild): small to medium sized round cytoplasmic vacuoles within hepatocytes
Grade 3 (moderate): in addition: round cytoplasmic vacuoles, partly forcing the nucleus to the periphery of the cell
Grade 4 (marked): in addition: whole lobe affected
For focal changes or multifocal changes 0.5 or 0.25 were subtracted respectively. The mean severity index was calculated by dividing the sum of all gradings/group by the number of animals/group.

[3] = tested on: Tumor Necrosis Factor Alpha (TNFα); experiment: Systemic TNFα release in LPS-challenged Sprague Dawley rats; conditions: SD rats; 0.1, 0.3, 1, 3 and 10 mg/kg p.o. 1 h before LPS 20 μg/kg i.v.; plasma 1 h after LPS; significant at all doses
Method: Compound A was administered 1 h before LPS challenge at doses of 0.1, 0.3, 1, 3 and 10 mg/kg (n=8 animals per dose group). An LPS and vehicle treated control group of n=8 animals was enclosed. Compound A or vehicle was given per os (p.o.) by gavage (administration volume: 10 mL/kg b.w.). LPS was injected intravenously (i.v.) at a dose of 20 μg/kg (administration volume: 1 mL/kg b.w.) 1 h after compound or vehicle administration.
One hour after LPS-challenge, the animals were sacrificed by inhalative isoflurane anaesthesia (5%; flow rate: 2-3 L/min) and subsequent cervical dislocation. Heparinized blood was obtained by heart puncture. Blood was centrifuged (21,000×g, 4° C., 10 min), and plasma samples were kept frozen at −20° C. until determination of TNFα levels by ELISA.

[4] = tested on: ob/ob mice; experiment: Insulin tolerance test (insulin sensitivity) in ob/ob mice; conditions: 29 days
Method: Male 5 weeks old ob/ob mice (B6.Cg-Lep^ob/J, genotype: Lep^ob/Leb^ob) and age-matched male lean mice (B6.Cg-Lep^ob/J, genotype: Lep^ob/+ * or Leb^+/+) were purchased from Charles River Laboratories, Japan Inc. All mice were fed with a normal chow (CE-2, CLEA Japan) and allowed free access to tap water. The animals were housed in a room with controlled temperature (23±1° C.), humidity (55±10%) and lightning (lights from 07:00 to 19:00). All experiments were approved by the Institutional Animal Care and Use Committee of Shonan Research Center, Takeda Pharmaceutical Company ltd (Japan).
All mice were housed individually in animal cages and used for the study at 7 weeks of age after 2 weeks of acclimation period. Blood samples were collected from the tail vein. Heparin and 2%-EDTA were used to inhibit the coagulation of the blood. Plasma was obtained by centrifugation. Plasma levels of glucose were measured using the automatic analyzer 7180 (Hitachi, Japan). Vehicle (0.5 w/v % methylcellulose, 10 ml/kg) and Compound A (3 and 10 mg/kg suspended in 0.5% methylcellulose solution) were orally administered once daily. After 28 days of administration, the insulin tolerance test (ITT) was performed. Mice were fasted for 6 h and then intraperitoneally administered with insulin (Novolin R, NovoNordisk) at a dose of 0.5 unit/5 ml/kg. Blood samples were collected from tail vein before and 15, 30, 60 and 120 min after the insulin administration. Plasma glucose (PG) level and ITT were measured using the method described above. […] AUC0-120 min of plasma glucose level was calculated using the following formula; [{(0 min PG)+(15 min PG)}×15+{(15 min PG)+(30 min PG)}×15+{(30 min PG)+(60 min PG)}×30+{(60 min PG)+[…]}×60]/2.
Data are expressed as mean and standard deviation (n=8 for ob/ob mice and n=5 for lean mice). The dose response trends of Compound A were assessed by one-tailed Williams' test or Shirley-Williams test. […] For evaluation of the effects of pioglitazone, statistical differences between vehicle and pioglitazone treated groups were analyzed with Student's t-test or Aspin-Welsh test. […]

[5] = 3 and 10 mg/kg p.o. daily, 8 weeks

Question: How did the “hepatic TG content” value [1] turn out when `CCOc1cc2c(cc1OC)C(c1ccc(=O)n(C)c1)=N[C@@H]1CC[C@@H](O)C[C@H]21` [Compound A, 5-((2R,4aR,10bR)-9-Ethoxy-2-hydroxy-8-methoxy-1,2,3,4,4a,10b-hexahydro-phenanthridin-6-yl)-1-methyl-1H-pyridin-2-one] was run?
Answer: significantly reduced from the initial value

Question: And the hepatic fibrosis area [1]?
Answer: reduction

Question: What about the “increase in liver weight caused by high caloric diet” value [2, 5] of the same compound?
Answer: completely abolished

Question: And the liver lipidosis [2, 5]?
Answer: almost abolished

Question: What about the “Liver weight (Day 56)” value ([2]; 0.3 mg/kg p.o. daily, 8 weeks) of the same compound?
Answer: 1.08 g

Question: And the “Grade Liver Lipidosis (mean)” value ([2]; 0.3 mg/kg p.o.)?
Answer: 1.4

Question: What about the “Liver weight (Day 56)” value ([2]; 1.0 mg/kg p.o. daily, 8 weeks) of the same compound?
Answer: 1.01 g

Question: And the “Grade Liver Lipidosis (mean)” value ([2]; 1.0 mg/kg p.o.)?
Answer: 0.6

Question: What about the “Liver weight (Day 56)” value ([2]; 3.0 mg/kg p.o. daily, 8 weeks) of the same compound?
Answer: 0.96 g

Question: And the “Grade Liver Lipidosis (mean)” value ([2]; 3.0 mg/kg p.o.)?
Answer: 0.3

Question: And the “Liver weight (Day 56)” value ([2]; 10 mg/kg p.o. daily, 8 weeks)?
Answer: 0.95 g

Question: And the “Grade Liver Lipidosis (mean)” value ([2]; 10.0 mg/kg p.o.)?
Answer: 0.2

Question: What about the “mean TNFα in blood plasma” value [3] of the same compound?
Answer: dose-dependently reduced

Question: And the “insulin-stimulated plasma glucose (PG) reduction at 60 min” value ([4]; 10 mg/kg/day p.o., ITT insulin 0.5 unit/kg i.p., vs vehicle)?
Answer: significantly enhanced

Question: What about the “AUC of PG level (AUC0-120 min)” value ([4]; 3 and 10 mg/kg/day p.o., ITT, statistical significance at 10 mg/kg/day) of the same compound?
Answer: dose-dependently decreased

Question: What about the “declines in plasma glucose level at 60 min from the zero time value” ([4]; 3 and 10 mg/kg/day p.o., ITT, vs vehicle) of the same compound?
Answer: significantly greater
